{
  "source": "paper PMC12457209",
  "about": "“Jianpi‐Huogu Prescription Repairs Nontraumatic Osteonecrosis of the Femoral Head by Inhibiting NAMPT/STK11/HMGCR/ACAT1 Axis‐Mediated Lipid Production” (Journal of Cellular and Molecular Medicine, 2025)",
  "data": [
    {"target": "T1, NMNAT1 (Nicotinamide Nucleotide Adenylyl Transferase 1) (Homo sapiens, UniProt Q9HAN9)", "T1 construct": "amine-coupled to CM5 chip", "T1 sequence (Q9HAN9 whole entry)": "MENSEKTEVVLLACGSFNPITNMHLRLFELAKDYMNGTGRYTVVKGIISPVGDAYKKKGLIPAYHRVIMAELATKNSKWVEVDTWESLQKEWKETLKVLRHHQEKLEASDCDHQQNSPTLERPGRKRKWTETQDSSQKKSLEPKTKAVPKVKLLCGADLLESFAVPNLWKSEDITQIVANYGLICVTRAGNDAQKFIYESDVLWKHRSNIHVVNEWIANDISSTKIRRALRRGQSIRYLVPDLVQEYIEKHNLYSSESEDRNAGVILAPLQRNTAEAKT", "test": "SPR, Biacore T200, immobilised protein", "format": "binding", "conditions": "PBS, 5% DMSO, 0.5% P20, pH 7.4; compound 1.56 to 50 μM", "values": [
      {"smiles": "COc1cc(-c2cc(=O)c3c(O)c(O)c(OC)cc3o2)ccc1O", "note": "[5,6,4′‐trihydroxy‐7,3′‐dimethoxyflavone]", "SPR, Biacore T200, immobilised protein": "SPR analysis confirmed direct and specific binding of these compounds to NMNAT1"},
      {"smiles": "COc1cc(/C=C/C(=O)O)ccc1O", "note": "[ferulic acid]", "SPR, Biacore T200, immobilised protein": "SPR analysis confirmed direct and specific binding of these compounds to NMNAT1"},
      {"smiles": "Nc1nc2c(ncn2[C@@H]2O[C@H](CO)[C@@H](O)[C@H]2O)c(=O)[nH]1", "note": "[guanosine]", "SPR, Biacore T200, immobilised protein": "SPR analysis confirmed direct and specific binding of these compounds to NMNAT1"},
      {"smiles": "CCC/C=C1\\OC(=O)C2=C1CC[C@@H](O)[C@H]2O", "note": "[senkyunolide H]", "SPR, Biacore T200, immobilised protein": "SPR analysis confirmed direct and specific binding of these compounds to NMNAT1"}
    ]}
  ]
}
